From patent publication US5334761A, “Cationic lipids” (Life Technologies, Inc., priority 1992, dated 1994)
Structures can show the parent of a compound that is named as a salt.

Legend:
[1] = test system: Jurkat cells; assay: % protein (toxicity estimate, Bradford) after transfection; type: cell-based, human; conditions: Jurkat
Method: (§1) A one-to-one mixture (by weight) of the desired lipid and dioleylphosphatidyl ethanolamine was prepared in CHCl3. The CHCl3 was removed on the rotary evaporator to obtain a thin film of lipid mixture. The mixture was hydrated with enough water to obtain approximately 1.25 mg of lipid per ml of solution. The solution was passed through a microfluidizer twice and diluted to 1 mg/ml. The liposome formulation was then filtered through a 0.2 μ filter. Compound 8 was also formulated without DOPE either by sonication at 1 mg/ml in water or by dissolving a dried lipid film with ethanol and then adding water to give a final concentration of 2.5 mg/ml. Ethanol was 10% of that volume. In some instances, this was further diluted with water to 1 mg/ml, 4% ethanol.
(§2) Baby hamster kidney (BHK-21) , COS-7, HeLa-S3 cells, and normal human fibroblasts isolated from newborn foreskin dermis were grown in Dulbecco's-modified Eagle's medium (DMEM) containing 10% fetal bovine serum (FBS), 2 mM L-glutamine (gln), 0.1 mM MEM nonessential amino acids (NEAA), 100 U/ml penicillin, and 100 μg/ml streptomycin. NIH-3T3 cells were grown in DMEM containing 10% calf serum (CS), 2 mMgln, 0.1 mM NEAA 100 U/ml penicillin, and 100 μg/ml streptomycin. PC12 cells were grown in DMEMcontaining 10% horse serum, 5% FBS, 2 mM gln, 0 1 mMNEAA, 100 U/ml penicillin and 100 μ/ml streptomycin. Jurkat cells (human lymphoid cell line) were grown in RPMI-1640 supplemented with 10% FBS, 2mML-glutamine, 100 U/ml penicillin, and 100 μg/ml streptomycin. Human keratinocytes were isolated from newborn foreskin epidermis and cultured in Keratinocyte Growth Medium (Clonetics, San Diego, Ca.). All cell lines were maintained in a humidified incubator with a 5% CO2 atmosphere at 37° C.
(§3) For transient nuclear expression of pSV2CAT or pCMVCAT in Jurkat cells, cells were washed with Opti-MEM I or serum-free RPMI 1640 containing 2 mM gln and plated in six-well plates at a density of 3×10^6 cells per well in 0.8 ml Opti-MEM I or RPMI 1640. For each transfection, 5 μg pSV2CAT DNA or 2 μg pCMVCAT DNA was diluted in 100 μl Opti-MEM I. Lipids were diluted separately in another 100 μl aliquot of Opti-MEMI. The two solutions were then mixed in a polystyrene tube and incubated for 10-15 min at room temperature. The DNA-liposome complex was added to the cell suspensions and incubated 6 hours at 37° C., after which 4 ml growth medium were added per well (RPMI-1640; 10% FBS). Phorbol myristate acetate (Sigma Chemical Co., St. Louis, Mo.) and phytohemagglutinin (Sigma) were also added to a final concentration of 50 ng/ml and 1 μg/ml, respectively, to activate the cells. Cells were harvested at approximately 48 hours post-transfection by centrifugation. Cell lysates were prepared by resuspending cell pellets at 0° C. in 0.1 M Tris-HC1 pH 8.0 containing 0.1% Triton X-100 and freeze-thawing once. Cell lysates were cleared by centrifugation and assayed for CAT activity.
(§4) The "% protein" column indicates the relative amount of protein in the sample tested for CAT activity and therefore provides a way to estimate toxicity of the compounds being tested. The "CAT Activity" column indicates the relative transfection effectiveness of the lipid formulation in the various cell lines. The control sample was a cell culture grown under similar conditions as those that were transfected, but with no DNA or cationic lipid added. Protein was measured using a commercially available Bradford protein assay (BioRad Laboratories, Richmond, Ca.).
(§5) Jurkat cells (3 × 10^6 cells) were transfected in OPTIMEM with
(§6) μg of pSV2CAT DNA for 6 hours.
(§7) DNA-lipid complexes were made in OPTIMEM. Jurkat cells (3 × 10^
(§8) cells) were transfected in RPMI1640 with 2 μg of pCMVCAT DNA for 6

[2] = as above; type: cell-based, human; conditions: human, jurkat cells, 15 μg lipid; 2 μg pCMVCAT; 6 h RPMI1640
Method: as §1, §2, §3, §4, §5, §6, §7, §8

CCCCCCCC/C=C\CCCCCCCCOCC(C[N+](C)(C)CCNC(=O)C(CCCNCCCN)NCCCN)OCCCCCCCC/C=C\CCCCCCCC (centres unmarked) [Compound 8, 1-Propanaminium, N-[2-[[2,5-bis[(3-amino]-1-oxopentyl]amino]ethyl]-n,n-dimethyl-2,3,-bis(9-octadecenyloxy)-, tetra(trifluoroacetate) salt]
toxicity (in words) [1]: minimal toxicity
viability at 6 h [2]: 47%
